Experimental data from patent US20230092890A1, “1, 3, 4-Oxadiazole derivative compounds as histone deacetylase 6 inhibitor, and the pharmaceutical composition comprising the same” (Chong Kun Dang Pharmaceutical Corp., priority 2019, published 2023).
Like-named read-outs stand apart in the source and are kept apart here.

Legend:
HDAC6 human recombinant = target: T1, HDAC6 human recombinant (Homo sapiens, UniProt Q9UBN7); test: HDAC enzyme activity inhibition (in vitro), HDAC6 assay; type: biochemical
T1 construct: purchased Calbiochem 382180
T1 sequence (Q9UBN7 1-1215): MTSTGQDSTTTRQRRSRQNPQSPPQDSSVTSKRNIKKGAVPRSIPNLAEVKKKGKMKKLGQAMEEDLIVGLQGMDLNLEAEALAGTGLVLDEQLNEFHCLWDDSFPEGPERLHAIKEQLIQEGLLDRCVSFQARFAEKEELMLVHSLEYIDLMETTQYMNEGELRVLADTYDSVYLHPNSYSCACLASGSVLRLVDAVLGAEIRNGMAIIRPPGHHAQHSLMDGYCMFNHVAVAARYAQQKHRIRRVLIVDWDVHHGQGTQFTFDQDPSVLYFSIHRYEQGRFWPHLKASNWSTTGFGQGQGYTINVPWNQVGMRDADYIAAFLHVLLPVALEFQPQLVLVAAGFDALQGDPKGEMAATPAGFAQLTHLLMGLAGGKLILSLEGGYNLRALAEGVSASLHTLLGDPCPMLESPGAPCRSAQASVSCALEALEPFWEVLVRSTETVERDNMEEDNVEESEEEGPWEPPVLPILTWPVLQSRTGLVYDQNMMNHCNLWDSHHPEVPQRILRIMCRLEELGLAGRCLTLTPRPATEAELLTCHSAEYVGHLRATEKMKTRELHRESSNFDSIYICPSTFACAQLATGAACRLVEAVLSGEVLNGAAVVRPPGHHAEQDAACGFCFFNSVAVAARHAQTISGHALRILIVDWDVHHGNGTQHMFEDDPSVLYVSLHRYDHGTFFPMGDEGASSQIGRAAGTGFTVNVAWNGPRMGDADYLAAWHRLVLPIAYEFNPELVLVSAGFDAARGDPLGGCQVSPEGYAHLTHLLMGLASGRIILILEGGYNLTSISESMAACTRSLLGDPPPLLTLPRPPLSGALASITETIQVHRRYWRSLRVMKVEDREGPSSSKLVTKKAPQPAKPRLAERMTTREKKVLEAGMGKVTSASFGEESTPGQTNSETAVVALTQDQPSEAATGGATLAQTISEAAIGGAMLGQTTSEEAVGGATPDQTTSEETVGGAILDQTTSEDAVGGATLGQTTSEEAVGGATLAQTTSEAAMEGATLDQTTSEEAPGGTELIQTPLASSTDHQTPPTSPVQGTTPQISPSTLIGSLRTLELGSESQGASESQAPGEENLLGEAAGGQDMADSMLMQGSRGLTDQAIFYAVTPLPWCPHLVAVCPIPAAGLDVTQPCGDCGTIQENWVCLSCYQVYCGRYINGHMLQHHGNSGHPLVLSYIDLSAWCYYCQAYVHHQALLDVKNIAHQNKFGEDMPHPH
Outline: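 HDAC6 human recombinant enzyme with fluorimetric substrate; […]. Reaction 60 min at 37° C, then developer 30 min at 37° C; fluorescence read at Ex 390/Em 460.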

HDAC1 = target: T2, HDAC1 (Homo sapiens, UniProt Q13547); test: HDAC enzyme activity inhibition (in vitro), HDAC1 Fluorimetric Drug Discovery Assay Kit; type: biochemical
T2 construct: purchased Enzolifesciences BML-AK511
T2 sequence (Q13547 whole entry): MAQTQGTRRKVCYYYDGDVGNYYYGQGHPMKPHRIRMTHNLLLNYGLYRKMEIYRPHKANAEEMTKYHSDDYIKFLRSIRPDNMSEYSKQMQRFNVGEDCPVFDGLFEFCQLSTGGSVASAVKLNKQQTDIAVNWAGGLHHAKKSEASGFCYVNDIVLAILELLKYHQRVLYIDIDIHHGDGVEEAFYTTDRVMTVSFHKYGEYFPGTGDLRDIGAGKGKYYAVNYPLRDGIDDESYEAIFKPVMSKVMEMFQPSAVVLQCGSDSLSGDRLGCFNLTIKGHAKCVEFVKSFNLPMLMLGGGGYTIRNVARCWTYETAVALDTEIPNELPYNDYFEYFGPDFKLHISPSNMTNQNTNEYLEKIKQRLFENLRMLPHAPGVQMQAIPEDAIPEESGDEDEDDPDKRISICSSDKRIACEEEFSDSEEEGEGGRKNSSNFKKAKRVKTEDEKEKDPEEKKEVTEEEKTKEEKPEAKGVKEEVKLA
Outline: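 HDAC1 was tested at 100, 1000 and 10000 nM and recombinant human HDAC6 at 0.1, 1, 10, 100 and 1000 nM. Enzyme reactions ran 60 min at 37° C, then developer was added for 30 min at 37° C, and fluorescence (Ex 390, Em 460) was read.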

[1] = samples at 0.1, 1, 10, 100 and 1000 nM, 37° C. 60 minutes, fluorescence Ex 390, Em 460, read-out: HDAC6 IC50
[2] = samples at 100, 1000 and 10000 nM, 37° C. 60 minutes, fluorescence Ex 390, Em 460, read-out: HDAC1 IC50

Row | IC50 (HDAC6 human recombinant; [1]) [nM] | IC50 (HDAC1; [2]) [nM] | SMILES | IC50 (HDAC6 human recombinant) [nM] | IC50 (HDAC1) [nM]
1 | 40 | > 10000 | CN1CCC(n2c(=O)n(Cc3ccc(-c4nnc(C(F)F)o4)cc3F)c3cc(F)c(F)cc32)CC1 [Compound 93, 1-(4-(5-(difluoromethyl)-1,3,4-oxadiazole-2-yl)-2-fluorobenzyl)-5,6-difluoro-3-(1-methylpiperidine-4-yl)-1,3-dihydro-2H-benzo[d]imidazole-2-one] |  | 
2 | 37 | > 10000 | O=c1oc2cc(-c3cccnc3)ccc2n1Cc1ccc(-c2nnc(C(F)F)o2)cn1 [Compound 304, 3-((5-(5-(difluoromethyl)-1,3,4-oxadiazole-2-yl)pyridine-2-yl)methyl)-6-(pyridine-3-yl) benzo[d]oxazole-2(3H)-one] |  | 
3 | 211 | > 10000 | Cc1ccc(-c2cc3c(cc2F)n(Cc2ccc(-c4nnc(C(F)F)o4)cc2F)c(=O)n3C)o1 [Compound 170, 1-(4-(5-(difluoromethyl)-1,3,4-oxadiazole-2-yl)-2-fluorobenzyl)-6-fluoro-3-methyl-5-(5-methylfuran-2-yl)-1,3-dihydro-2H-benzo[d]imidazole-2-one] |  | 
4 | 241 | > 10000 | O=c1n(Cc2ccc(-c3nnc(C(F)F)o3)cc2F)c2ccccc2n1C1CN(C2COC2)C1 [Compound 23, 1-(4-(5-(difluoromethyl)-1,3,4-oxadiazole-2-yl)-2-fluorobenzyl)-3-(1-(oxetan-3-yl)azetidine-3-yl)-1,3-dihydro-2H-benzo[d]imidazole-2-one] |  | 
5 | 19 | > 10000 | O=c1n(Cc2ccc(-c3nnc(C(F)F)o3)cc2F)c2cc(F)ccc2n1C1CCN(C2COC2)CC1 [Compound 71, 3-(4-(5-(difluoromethyl)-1,3,4-oxadiazole-2-yl)-2-fluorobenzyl)-5-fluoro-1-(1-(oxetan-3-yl)piperidine-4-yl)-1,3-dihydro-2H-benzo[d]imidazole-2-one] |  | 
6 | 84 | > 10000 | O=c1n(CCN2CC3(COC3)C2)c2ccccc2n1Cc1ccc(-c2nnc(C(F)F)o2)cn1 [Compound 25, 1-(2-(2-oxa-6-azaspiro[3.3]heptane-6-yl)ethyl)-3-((5-(5-(difluoromethyl)-1,3,4-oxadiazole-2-yl)pyridine-2-yl)methyl)-1,3-dihydro-2H-benzo[d]imidazole-2-one] |  | 
7 | 39 | > 10000 | Cn1c(=O)n(Cc2ccc(-c3nnc(C(F)F)o3)cn2)c2cc(F)c(N3CCN(C(=O)CO)CC3)cc21 [Compound 266, 1-((5-(5-(difluoromethyl)-1,3,4-oxadiazole-2-yl)pyridine-2-yl)methyl)-6-fluoro-5-(4-(2-hydroxyacetyl)piperazine-1-yl)-3-methyl-1,3-dihydro-2H-benzo[d]imidazole-2-one] |  | 
8 | 102 | > 10000 | CN1CCC(c2ccc3c(c2)n(C2CCN(C)CC2)c(=O)n3Cc2ccc(-c3nnc(C(F)F)o3)cc2F)CC1 [Compound 156, 1-(4-(5-(difluoromethyl)-1,3,4-oxadiazole-2-yl)-2-fluorobenzyl)-3,5-bis(1-methylpiperidine-4-yl)-1,3-dihydro-2H-benzo[d]imidazole-2-one] |  | 
9 | 17 | > 10000 | O=C(CO)N1CCC(n2c(=O)n(Cc3ccc(-c4nnc(C(F)F)o4)cn3)c3cc(Cl)ccc32)CC1 [Compound 243, 5-chloro-3-((5-(5-(difluoromethyl)-1,3,4-oxadiazole-2-yl)pyridine-2-yl)methyl)-1-(1-(2-hydroxyacetyl)piperidine-4-yl)-1,3-dihydro-2H-benzo[d]imidazole-2-one] |  | 
10 | 8 | > 10000 | CN1CCC(n2c(=O)n(Cc3ccc(-c4nnc(C(F)F)o4)cn3)c3cc(F)c(-c4ccc5[nH]ncc5c4)cc32)CC1 [Compound 256, 1-((5-(5-(difluoromethyl)-1,3,4-oxadiazole-2-yl)pyridine-2-yl)methyl)-6-fluoro-5-(1H-indazole-5-yl)-3-(1-methylpiperidine-4-yl)-1,3-dihydro-2H-benzo[d]imidazole-2-one] |  | 
11 | 61 | > 10000 | COc1ccc(-c2ccc3c(c2)n(C2CCN(C)CC2)c(=O)n3Cc2ccc(-c3nnc(C(F)F)o3)cc2F)cn1 [Compound 164, 1-(4-(5-(difluoromethyl)-1,3,4-oxadiazole-2-yl)-2-fluorobenzyl)-5-(6-methoxypyridine-3-yl)-3-(1-methylpiperidine-4-yl)-1,3-dihydro-2H-benzo[d]imidazole-2-one] |  | 
12 | 53 | > 10000 | O=c1n(Cc2ccc(-c3nnc(C(F)F)o3)cn2)c2cc(F)c(N3CCN(C4COC4)CC3)cc2n1C1COC1 [Compound 321, 1-((5-(5-(difluoromethyl)-1,3,4-oxadiazole-2-yl)pyridine-2-yl)methyl)-6-fluoro-3-(oxetan-3-yl)-5-(4-(oxetan-3-yl)piperazine-1-yl)-1,3-dihydro-2H-benzo[d]imidazole-2-one] |  | 
13 | 267 | > 10000 | CS(=O)(=O)N1CCC(n2c(=O)n(Cc3ccc(-c4nnc(C(F)F)o4)cc3F)c3ccccc32)CC1 [Compound 18, 1-(4-(5-(difluoromethyl)-1,3,4-oxadiazole-2-yl)-2-fluorobenzyl)-3-(1-(methylsulfonyl)piperidine-4-yl)-1,3-dihydro-2H-benzo[d]imidazole-2-one] |  | 
14 | 48 | > 10000 | CN1CCC(n2c(=O)n(Cc3ccc(-c4nnc(C(F)F)o4)cn3)c3cc(F)c(-c4ccc5c(cnn5C(=O)OC(C)(C)C)c4)cc32)CC1 [Compound 255, tert-butyl 5-(1-((5-(5-(difluoromethyl)-1,3,4-oxadiazole-2-yl)pyridine-2-yl)methyl)-6-fluoro-3-(1-methylpiperidine-4-yl)-2-oxo-2,3-dihydro-1H-benzo[d]imidazole-5-yl)-1H-indazole-1-carboxylate] |  | 
15 | 47 | > 10000 | CN1CCN(c2ccc(-c3cc4oc(=O)n(Cc5ccc(-c6nnc(C(F)F)o6)cn5)c4cc3F)cn2)CC1 [Compound 346, 3-((5-(5-(difluoromethyl)-1,3,4-oxadiazole-2-yl)pyridine-2-yl)methyl)-5-fluoro-6-(6-(4-methylpiperazine-1-yl)pyridine-3-yl)benzo[d]oxazole-2(3H)-one] |  | 
16 | 312 | > 10000 | O=c1oc2cc(-c3ccnc(N4CCN(C5CCC5)CC4)c3)c(F)cc2n1Cc1ccc(-c2nnc(C(F)F)o2)cn1 [Compound 367, 6-(2-(4-cyclobutylpiperazine-1-yl)pyridine-4-yl)-3-((5-(5-(difluoromethyl)-1,3,4-oxadiazole-2-yl)pyridine-2-yl)methyl)-5-fluorobenzo[d]oxazole-2(3H)-one] |  | 
17 | 798 | > 10000 | CN1CCC(n2c(=O)n(Cc3ccc(-c4nnc(C(F)F)o4)cc3)c3cc(-c4cc(F)ccc4F)ccc32)CC1 [Compound 128] |  | 
18 | 12 | > 10000 | O=c1n(Cc2ccc(-c3nnc(C(F)F)o3)cn2)c2cc(F)c(-c3cccnc3)cc2n1C1CN(C2COC2)C1 [Compound 311, 1-((5-(5-(difluoromethyl)-1,3,4-oxadiazole-2-yl)pyridine-2-yl)methyl)-6-fluoro-3-(1-(oxetan-3-yl)azetidine-3-yl)-5-(pyridine-3-yl)-1,3-dihydro-2H-benzo[d]imidazole-2-one] |  | 
19 | 148 | > 10000 | O=c1n(Cc2ccc(-c3nnc(C(F)F)o3)cn2)c2ncccc2n1C1CCN(C2COC2)CC1 [Compound 108] |  | 
20 |  |  | O=c1n(Cc2ccc(-c3nnc(C(F)F)o3)cn2)c2cc(Cl)ccc2n1C1CCN(CC(F)(F)C(F)(F)C(F)(F)F)CC1 [Compound 232, 5-chloro-3-((5-(5-(difluoromethyl)-1,3,4-oxadiazole-2-yl)pyridine-2-yl)methyl)-1-(1-(2,2,3,3,4,4,4-heptafluorobutyl)piperidine-4-yl)-1,3-dihydro-2H-benzo[d]imidazole-2-one] | 643 | > 10000
